According to publication PMC7252524 (Journal of medicinal chemistry, 2019):

Test: Mouse PK analysis, large intestine
Assay type: in vivo

Large Intestinal PK AUClast (ip, 10 mg/kg)	Large Intestinal PK AUClast (iv, 10 mg/kg)	Large Intestinal PK AUClast (iv, 5 mg/kg)	Large Intestinal PK AUClast (po, 20 mg/kg)	SMILES
633,289 ng·min/g	559,037 ng·min/g			C#CCC1CCN(C2CCN(S(=O)(=O)c3ccc(Br)cc3)CC2)CC1 [compound 92, 1’-((4-Bromophenyl)sulfonyl)-4-(prop-2-yn-1-yl)-1,4’-bipiperidine]
737,709 ng·min/g				COc1ccc(S(=O)(=O)N2CCC(N3CCC(C)CC3)CC2)cc1 [compound 6, 1’-((4-Methoxyphenyl)sulfonyl)-4-methyl-1,4’-bipiperidine]
	262,874 ng·min/g			CC1CCN(C2CCN(S(=O)(=O)c3ccc(Cl)cc3)CC2)CC1 [compound 16, 1’-((4-Chlorophenyl)sulfonyl)-4-methyl-1,4’-bipiperidine]
790,425 ng·min/g		511,878 ng·min/g	890,969 ng·min/g	CC1CCN(C2CCN(S(=O)(=O)c3ccc(OC(F)F)cc3)CC2)CC1 [compound 22, 1’-((4-(Difluoromethoxy)phenyl)sulfonyl)-4-methyl-1,4’-bipiperidine]
